Laboratory results as given in patent US7612064B2, “Sulfopyrroles” (Takeda Pharmaceutical Company Limited, priority 2003, dated 2009).

Columns and labels:
HeLa = assay: MTS proliferation assay; assay type: cell-based, human; conditions: 72 h
Procedure: (§1) The assay is performed in 96 well tissue culture plates. […] The test compounds are added in 20 μl complete medium containing max 5% DMSO. The final compound concentrations in the assays are 10 μM, 3 μM, 1 μM and 0.3 μM, respectively. The assay plates are incubated for 72 h at culture conditions. The MTS reagent is prepared according to the manufacturer's protocol (Promega G1111). 20 μl MTS reagent are added to each well, the assay plates are quickly spun and incubated for another 3 h at culture conditions. Subsequently, the plates are shortly shacked and absorption measured with a microplate-reader at 492 nm.

Jurkat = assay: MTS proliferation assay; assay type: cell-based, human; conditions: 72 h
Procedure: as §1

MRC5 = assay: MTS proliferation assay; assay type: cell-based; conditions: MRC5, 72 h
Procedure: as §1

[1] = Hoechst 33342 nuclear staining; assay type: cell-based; conditions: 24 h or 48 h incubation; for Hoechst 33342 nuclear staining score, HeLa: HeLa cells; for Hoechst 33342 nuclear staining score, Jurkat: Jurkat cells;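 as to all read-outs here: apoptotic nuclei scored 0 none 1 weak under 50% of cells 2 strong over 50% of cells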
Procedure: This assay is performed in 96 well tissue culture plates. Appropriate number of cells (adherent cells: 3-5*10^3, suspension cells: 8-10*10^3) are being seeded out in 80 μl complete medium. Adherent cells are incubated for 24 h for proper spreading out before addition of test compounds while suspension cells are immediately treated with test compounds after seeding out. The test compounds are added in 20 μl complete medium containing max 5% DMSO. […] […] The assay plates are then further incubated for 30 min and subsequently analyzed with a standard inverted fluorescence microscope.
The readout allows the determination of the fraction of apoptotic nuclei as well as other morphological criteria specific for apoptosis as a function of the treatment. The following scores are used: 0 relating to no activity, 1 relating to weak activity comprising less than 50% of the cells and score 2 relating to strong activity comprising more than 50% of the cells.

[2] = conc 0.1 (final concentrations in μM)
[3] = conc 0.3 (final concentrations in μM)
[4] = conc 1 (final concentrations in μM)
[5] = conc 3 (final concentrations in μM)

## Cc1ccc(S(=O)(=O)n2cc(CNCCN3CCCCC3)cc2-c2ccc3c(c2)OCO3)cc1 [Example 18]
HeLa
  IC50: > 1 µM
Jurkat
  IC50: > 1 µM
MRC5
  IC50: > 1 µM
[1]; [2]
  Hoechst 33342 nuclear staining score, HeLa: 0
  Hoechst 33342 nuclear staining score, Jurkat: 0
[1]; [3]
  Hoechst 33342 nuclear staining score, HeLa: 0
  Hoechst 33342 nuclear staining score, Jurkat: 0
[1]; [4]
  Hoechst 33342 nuclear staining score, HeLa: 0
  Hoechst 33342 nuclear staining score, Jurkat: 0
[1]; [5]
  Hoechst 33342 nuclear staining score, HeLa: 0
  Hoechst 33342 nuclear staining score, Jurkat: 0

## CCN(CC)CCN(C)Cc1cc(-c2ccc3c(c2)OCO3)n(S(=O)(=O)c2ccc(C)cc2)c1 [Example 19]
HeLa
  IC50: > 1 µM
Jurkat
  IC50: > 1 µM
MRC5
  IC50: > 1 µM
[1]; [2]
  Hoechst 33342 nuclear staining score, HeLa: 0
  Hoechst 33342 nuclear staining score, Jurkat: 0
[1]; [3]
  Hoechst 33342 nuclear staining score, HeLa: 0
  Hoechst 33342 nuclear staining score, Jurkat: 0
[1]; [4]
  Hoechst 33342 nuclear staining score, HeLa: 0
  Hoechst 33342 nuclear staining score, Jurkat: 0
[1]; [5]
  Hoechst 33342 nuclear staining score, HeLa: 0
  Hoechst 33342 nuclear staining score, Jurkat: 0

## CCN(CC)CCNCc1cc(-c2ccc3c(c2)OCO3)n(S(=O)(=O)c2ccc(C)cc2)c1 [Example 20]
HeLa
  IC50: > 1 µM
Jurkat
  IC50: > 1 µM
MRC5
  IC50: > 1 µM
[1]; [2]
  Hoechst 33342 nuclear staining score, HeLa: 0
  Hoechst 33342 nuclear staining score, Jurkat: 0
[1]; [3]
  Hoechst 33342 nuclear staining score, HeLa: 0
  Hoechst 33342 nuclear staining score, Jurkat: 0
[1]; [4]
  Hoechst 33342 nuclear staining score, HeLa: 0
  Hoechst 33342 nuclear staining score, Jurkat: 0
[1]; [5]
  Hoechst 33342 nuclear staining score, HeLa: 0
  Hoechst 33342 nuclear staining score, Jurkat: 0

## CCN1CCCC1CNCc1cc(-c2ccc3c(c2)OCO3)n(S(=O)(=O)c2ccc(C)cc2)c1 (centres unmarked) [Example 21]
HeLa
  IC50: > 1 µM
Jurkat
  IC50: > 1 µM
MRC5
  IC50: > 1 µM
[1]; [2]
  Hoechst 33342 nuclear staining score, HeLa: 0
  Hoechst 33342 nuclear staining score, Jurkat: 0
[1]; [3]
  Hoechst 33342 nuclear staining score, HeLa: 0
  Hoechst 33342 nuclear staining score, Jurkat: 0
[1]; [4]
  Hoechst 33342 nuclear staining score, HeLa: 0
  Hoechst 33342 nuclear staining score, Jurkat: 0
[1]; [5]
  Hoechst 33342 nuclear staining score, HeLa: 0
  Hoechst 33342 nuclear staining score, Jurkat: 0

## Cc1ccc(S(=O)(=O)n2cc(CNCCCN3CCCC3)cc2-c2ccc3c(c2)OCO3)cc1 [Example 22]
HeLa
  IC50: > 1 µM
Jurkat
  IC50: > 1 µM
MRC5
  IC50: > 1 µM
[1]; [2]
  Hoechst 33342 nuclear staining score, HeLa: 0
  Hoechst 33342 nuclear staining score, Jurkat: 0
[1]; [3]
  Hoechst 33342 nuclear staining score, HeLa: 0
  Hoechst 33342 nuclear staining score, Jurkat: 0
[1]; [4]
  Hoechst 33342 nuclear staining score, HeLa: 0
  Hoechst 33342 nuclear staining score, Jurkat: 0
[1]; [5]
  Hoechst 33342 nuclear staining score, HeLa: 0
  Hoechst 33342 nuclear staining score, Jurkat: 0

## Cc1ccc(S(=O)(=O)n2cc(CNCCCN3CCN(Cc4ccccc4)CC3)cc2-c2ccc3c(c2)OCO3)cc1 [Example 23]
HeLa
  IC50: > 1 µM
Jurkat
  IC50: > 1 µM
MRC5
  IC50: > 1 µM
[1]; [2]
  Hoechst 33342 nuclear staining score, HeLa: 0
  Hoechst 33342 nuclear staining score, Jurkat: 0
[1]; [3]
  Hoechst 33342 nuclear staining score, HeLa: 0
  Hoechst 33342 nuclear staining score, Jurkat: 0
[1]; [4]
  Hoechst 33342 nuclear staining score, HeLa: 0
  Hoechst 33342 nuclear staining score, Jurkat: 0
[1]; [5]
  Hoechst 33342 nuclear staining score, HeLa: 0
  Hoechst 33342 nuclear staining score, Jurkat: 0

## Cc1ccc(S(=O)(=O)n2cc(CNC(CN3CCN(C)CC3)c3ccccc3)cc2-c2ccc3c(c2)OCO3)cc1 (centres unmarked) [Example 24]
Jurkat
  IC50: > 1 µM
MRC5
  IC50: > 1 µM
[1]; [2]
  Hoechst 33342 nuclear staining score, HeLa: 0
  Hoechst 33342 nuclear staining score, Jurkat: 0
[1]; [3]
  Hoechst 33342 nuclear staining score, HeLa: 0
  Hoechst 33342 nuclear staining score, Jurkat: 0
[1]; [4]
  Hoechst 33342 nuclear staining score, HeLa: 0
  Hoechst 33342 nuclear staining score, Jurkat: 0
[1]; [5]
  Hoechst 33342 nuclear staining score, HeLa: 0
  Hoechst 33342 nuclear staining score, Jurkat: 0

## Cc1ccc(S(=O)(=O)n2cc(CN(C)C3CCN(Cc4ccccc4)C3)cc2-c2ccc3c(c2)OCO3)cc1 (centres unmarked) [Example 25]
HeLa
  IC50: > 1 µM
Jurkat
  IC50: > 1 µM
MRC5
  IC50: > 1 µM
[1]; [2]
  Hoechst 33342 nuclear staining score, HeLa: 0
  Hoechst 33342 nuclear staining score, Jurkat: 0
[1]; [3]
  Hoechst 33342 nuclear staining score, HeLa: 0
  Hoechst 33342 nuclear staining score, Jurkat: 0
[1]; [4]
  Hoechst 33342 nuclear staining score, HeLa: 0
  Hoechst 33342 nuclear staining score, Jurkat: 0
[1]; [5]
  Hoechst 33342 nuclear staining score, HeLa: 1 (weak activity comprising less than 50% of the cells)
  Hoechst 33342 nuclear staining score, Jurkat: 0

## Cc1ccc(S(=O)(=O)n2cc(CN(C)C3CCN(C)CC3)cc2-c2ccc3c(c2)OCO3)cc1 [Example 26]
HeLa
  IC50: > 1 µM
Jurkat
  IC50: > 1 µM
MRC5
  IC50: > 1 µM
[1]; [2]
  Hoechst 33342 nuclear staining score, HeLa: 0
  Hoechst 33342 nuclear staining score, Jurkat: 0
[1]; [3]
  Hoechst 33342 nuclear staining score, HeLa: 0
  Hoechst 33342 nuclear staining score, Jurkat: 0
[1]; [4]
  Hoechst 33342 nuclear staining score, HeLa: 0
  Hoechst 33342 nuclear staining score, Jurkat: 0
[1]; [5]
  Hoechst 33342 nuclear staining score, HeLa: 0
  Hoechst 33342 nuclear staining score, Jurkat: 0
